For test [1], the system named is transglutaminase (TGase). As to the kind of experiment: Measurement of TG (TGase inhibitory activity, monodansyl cadaverine / N,N-dimethylcasein fluorescence, FDSS 3000). Format: biochemical. An outline of the steps: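 Compound (1 μL of 10 mM stock) added to 0.1 mL reaction: 100 mM HEPES-NaOH pH 7.5, 1 mM CaCl2, 20 μM monodansyl cadaverine, 0.05 mg/mL N,N-dimethylcasein, 5 μg/mL TGase. Rate of fluorescence change at 340 nm measured; DMSO control set to 100; TG50 is the concentration halving activity.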

The subject of test [2] is Truncated N-terminal huntington 150 Q-EGFP-Neuron 2a cells. As to the kind of experiment: Measurement of x-Fold (polyglutamine aggregation inhibitory activity). The class given is cell-based. The procedure:
In the present invention, the polyglutamine aggregation inhibitory activity (x-Fold) can be measured, for example, by the method described in the Example.
The number of the aggregated cells, and the total number of cells were counted by Array Scan V T1 (manufactured by Cellomics, Pittuburg, USA), and the ratio of the aggregated cells to the total number of cells was determined (x-Fold). […]

For test [3], the system named is SOC (store operated calcium channel). As to the kind of experiment: Measurement of SOC IC50 (thapsigargin store depletion, calcium re-addition, CHO cells). The class given is cell-based. Particulars: read-out: SOC IC50. As for the experimental part: The SOC (store operated calcium channel)-suppressive action can be measured by the method described in the Example and using, for example, FDSS 3000.
CHO cell culture medium was replaced with a BSS solution which is an extracellular fluidfree of calcium, the compound of the present invention was added 1 min later, and 1 μM thapsigargin was allowed to act thereon 2 min later to deplete intracellular calcium store. […]

[4] abbreviates: TGase activity with compound (10 mM, 1 μL in 0.1 ml enzyme reaction solution), DMSO control taken as 100.
[5] abbreviates: ratio of aggregated cells to total number of cells, compound 20 μM, 20 hr, almost 1 without compound, smaller = stronger inhibition.
The mark [6] stands for this setting: Cricetulus griseus, CHO, CHO cells, 1 μM thapsigargin, 2 mM calcium chloride.
The mark [7] stands for this setting: TGase inhibitory activity value, Table 1.
Where [8] appears, read: polyglutamine aggregation inhibitory activity, Table 1.
The mark [9] stands for this setting: Cricetulus griseus, CHO, Table 1.
Setting [10] is: CHO cells, 1 μM thapsigargin, 2 mM calcium chloride.

These results are taken from patent US8853424B2 (Japan Science and Technology Agency, priority 2008, dated 2014).

pIC50: −log10 of the molar value. Like-named read-outs stand apart in the source and are kept apart here. Some results are limits rather than exact numbers.

One may read the pIC50 as −log10 of the IC50, conventionally taken in molar units. Turning to `OB(c1ccccc1)c1cccc(B(O)c2ccccc2)c1` [Example 119, 1,3-bis(phenylhydroxyboryl)benzene], the “TGase activity remaining (% of DMSO control = 100)” value in test [1] (setting [4]) stood at 101. Moreover, in test [2] (setting [5]), the x-Fold came out at 0.84. For the same compound, the pIC50 in test [3] (setting [6]) is below 4.70.
Take `N=C(N)NCCCC(N)C(=O)OB(c1ccccc1)c1ccccc1` (stereo not drawn) [Example 122, diphenyl(argininate-O,N)borane]: the “TGase activity remaining (% of DMSO control = 100)” value in test [1] (setting [4]) and in test [1] (setting [7]) was 93 each time. The x-Fold in test [2] (setting [8]) and in test [2] (setting [5]) was 0.98 each time. Also, the pIC50 in test [3] (setting [6]) and in test [3] (setting [9]) was 5.15 in each case.
`OB(c1ccccc1)c1ccc(COCc2ccc(B(O)c3ccccc3)cc2)cc1` [Example 137, bis((4,4′-phenylhydroxyboryl)benzyl)ether]: the “TGase activity remaining (% of DMSO control = 100)” value in test [1] (setting [4]) is reported as 14. Moreover, the x-Fold in test [2] (setting [5]) amounted to 0.99. In addition, the pIC50 in test [3] (setting [10]) was 6.52.
Take `OB(c1ccccc1)c1cccc(B(O)c2ccccc2)c1` [Example 147, 1,3-bis(phenylhydroxyboryl)benzene]: in test [1] (setting [4]), the “TGase activity remaining (% of DMSO control = 100)” value stood at 101. In test [2] (setting [5]), the x-Fold is 0.87. In test [3] (setting [10]), the pIC50 was 4.70.
For the compound `NC(=O)CC(N)C(=O)OB(c1ccc(COCc2ccc(B(OC(=O)C(N)CC(N)=O)c3ccc(C(F)(F)F)cc3)cc2)cc1)c1ccc(C(F)(F)F)cc1` (stereo not drawn) [Example 185, bis(4,4′-(p-trifluoromethylphenyl-asparagineboryl)benzyl)ether], the “TGase activity remaining (% of DMSO control = 100)” value in test [1] (setting [4]) was 130. Besides, the x-Fold in test [2] (setting [5]) is 0.94. Also, the pIC50 in test [3] (setting [10]) was below 4.70.
Turning to `CCCCNCCOB(c1ccc(C)c(Cl)c1)c1ccc(C)c(Cl)c1` [Example 210, di(3-chloro-4-methylphenyl)butylaminoethyl borinate], the “TGase activity remaining (% of DMSO control = 100)” value in test [1] (setting [4]) and in test [1] (setting [7]) was 27 each time. Besides, the x-Fold in test [2] (setting [8]) and in test [2] (setting [5]) was 0.98 each time. The pIC50 in test [3] (setting [6]) and in test [3] (setting [9]) was 5.70 in each case.
As for `Cc1ccc(B(OCCNCc2ccccc2)c2ccc(C)c(Cl)c2)cc1Cl` [Example 211, di(3-chloro-4-methylphenyl)benzylaminoethyl borinate], the “TGase activity remaining (% of DMSO control = 100)” value in test [1] (setting [4]) and in test [1] (setting [7]) was 86 throughout. Besides, the x-Fold in test [2] (setting [8]) and in test [2] (setting [5]) was 0.99 throughout. Moreover, the pIC50 in test [3] (setting [6]) and in test [3] (setting [9]) was 6.00 each time.
Take `Cc1ccc(B(OCC(N)c2ccccc2)c2ccc(C)c(Cl)c2)cc1Cl` (stereo not drawn) [Example 214]: the “TGase activity remaining (% of DMSO control = 100)” value in test [1] (setting [4]) and in test [1] (setting [7]) was −7 in each case. Also, the x-Fold in test [2] (setting [8]) and in test [2] (setting [5]) was 0.90 throughout. Besides, the pIC50 in test [3] (setting [6]) and in test [3] (setting [9]) was 5.70 each time.
With `Cc1ccc(B(Oc2ccccc2N)c2ccc(C)c(Cl)c2)cc1Cl` [Example 220, di(3-chloro-4-methylphenyl) 2-aminophenylborinate], the “TGase activity remaining (% of DMSO control = 100)” value in test [1] (setting [4]) and in test [1] (setting [7]) was 26 in each case. The x-Fold in test [2] (setting [8]) and in test [2] (setting [5]) was 0.50 throughout. Moreover, the pIC50 in test [3] (setting [6]) and in test [3] (setting [9]) was 6.30 throughout.
As to `Cc1ccc(B(OC(c2ccccc2)C(N)c2ccccc2)c2ccc(C)c(Cl)c2)cc1Cl` (stereo not drawn) [Example 225], the “TGase activity remaining (% of DMSO control = 100)” value in test [1] (setting [4]) and in test [1] (setting [7]) was 109 each time. Further, the x-Fold in test [2] (setting [8]) and in test [2] (setting [5]) was 1.03 throughout. Besides, the pIC50 in test [3] (setting [6]) and in test [3] (setting [9]) was 6.30 each time.
As to `CCC(N)COB(c1ccc(C)c(Cl)c1)c1ccc(C)c(Cl)c1` (stereo not drawn) [Example 229, di(3-chloro-4-methylphenyl) 2-aminobutylborinate], the “TGase activity remaining (% of DMSO control = 100)” value in test [1] (setting [4]) and in test [1] (setting [7]) was 40 throughout. Besides, the x-Fold in test [2] (setting [8]) and in test [2] (setting [5]) was 1.09 in each case. In addition, the pIC50 in test [3] (setting [6]) and in test [3] (setting [9]) was 6.30 each time.
Regarding `NCCOB(c1ccc(Cl)c(F)c1)c1ccc(Cl)c(F)c1` [Example 234, di(4-chloro-3-fluoro-phenyl) 2-aminoethylborinate], the “TGase activity remaining (% of DMSO control = 100)” value in test [1] (setting [4]) came out at 98; in test [1] (TGase inhibitory activity value, Table 1, listed as 4143), 98. Also, the x-Fold in test [2] (polyglutamine aggregation inhibitory activity, Table 1, listed as 4143) was 1.07; in test [2] (setting [5]), 1.07. Besides, the pIC50 in test [3] (setting [6]) and in test [3] (setting [9]) was 6.30 in each case.
On to `Cc1ccc(Cl)cc1B(OCCN)c1cc(Cl)ccc1C` [Example 244, di(5-chloro-2-methylphenyl) 2-aminoethylborinate], for which, in test [1] (setting [4]), the “TGase activity remaining (% of DMSO control = 100)” value came to 74. For the same compound, the x-Fold in test [2] (setting [5]) turned out to be 0.76. For the same compound, the pIC50 in test [3] (setting [6]) is 6.00.
Regarding `Cc1ccc(B(OCC2CCCCN2)c2ccc(C)c(Cl)c2)cc1Cl` (stereo not drawn) [Example 247, di(3-chloro-4-methylphenyl) 2-piperidinomethylborinate], the “TGase activity remaining (% of DMSO control = 100)” value in test [1] (setting [4]) was 99. Moreover, the x-Fold in test [2] (setting [5]) amounted to 0.91. In test [3] (setting [6]), the negative-log IC50 (pIC50) was 6.15.
`OB(c1ccccc1)c1ccc(B(O)c2ccccc2)cc1` [Example 252, 1,4-bis(phenylhydroxyboryl)benzene]: the “TGase activity remaining (% of DMSO control = 100)” value in test [1] (setting [4]) and in test [1] (setting [7]) was 93 in each case. Also, the x-Fold in test [2] (setting [8]) and in test [2] (setting [5]) was 0.95 in each case. For the same compound, the pIC50 in test [3] (setting [6]) and in test [3] (setting [9]) was 6.30 in each case.
On to `O=C1O[B-](c2ccccc2)(c2ccccc2)[NH2+]C1CO` (stereo not drawn) [Example 255, diphenyl(serinate-O,N)borane], for which the “TGase activity remaining (% of DMSO control = 100)” value in test [1] (setting [4]) and in test [1] (setting [7]) was 113 each time. The x-Fold in test [2] (setting [8]) and in test [2] (setting [5]) was 0.94 each time. Also, the pIC50 in test [3] (setting [6]) and in test [3] (setting [9]) was 6.30 throughout.
`O=C1O[B-](c2ccccc2)(c2ccccc2)[NH2+]C1Cc1ccccc1` (stereo not drawn) [Example 259, diphenyl(phenylalaninate-O,N)borane]: the “TGase activity remaining (% of DMSO control = 100)” value in test [1] (setting [4]) and in test [1] (setting [7]) was 67 throughout. Besides, the x-Fold in test [2] (setting [8]) and in test [2] (setting [5]) was 0.97 throughout. Besides, the negative-log IC50 (pIC50) in test [3] (setting [6]) and in test [3] (setting [9]) was 5.60 each time.
On to `NCCC(N)C(=O)OB(c1ccccc1)c1ccccc1` (stereo not drawn) [Example 263, diphenyl(2,4-diaminolactonate-O,N)borane], for which the “TGase activity remaining (% of DMSO control = 100)” value turned out to be 146 in test [1] (setting [4]) and 146 in test [1] (TGase inhibitory activity value, Table 1, listed as 2045). In addition, the x-Fold in test [2] (polyglutamine aggregation inhibitory activity, Table 1, listed as 2045) is listed as 0.89; in test [2] (setting [5]), 0.89. In addition, the pIC50 in test [3] (setting [6]) and in test [3] (setting [9]) was 5.52 throughout.
Consider `NC(CS)C(=O)OB(c1ccccc1)c1ccccc1` (stereo not drawn) [Example 266, diphenyl(cysteinate-O,N)borane], for which the “TGase activity remaining (% of DMSO control = 100)” value in test [1] (setting [4]) and in test [1] (setting [7]) was 84 each time. In addition, the x-Fold in test [2] (setting [8]) and in test [2] (setting [5]) was 0.87 in each case. The pIC50 in test [3] (setting [6]) and in test [3] (setting [9]) was 5.52 in each case.
`O=C(OB(c1ccccc1)c1ccccc1)C1CC(O)CN1` (stereo not drawn) [Example 268, diphenyl(hydroxyprolinate-O,N)borane]: the “TGase activity remaining (% of DMSO control = 100)” value in test [1] (setting [4]) and in test [1] (setting [7]) was 103 each time. The x-Fold in test [2] (setting [8]) and in test [2] (setting [5]) was 0.96 throughout. Further, the pIC50 in test [3] (setting [6]) and in test [3] (setting [9]) was 5.30 in each case.
On to `NC(=O)CCC(N)C(=O)OB(c1ccccc1)c1ccccc1` (stereo not drawn) [Example 269, diphenyl(glutaminate-O,N)borane], for which the “TGase activity remaining (% of DMSO control = 100)” value in test [1] (setting [4]) is listed as 95; in test [1] (TGase inhibitory activity value, Table 1, listed as 879), 95. The x-Fold in test [2] (polyglutamine aggregation inhibitory activity, Table 1, listed as 879) is reported as 1.01; in test [2] (setting [5]), 1.01. In addition, the pIC50 in test [3] (setting [6]) and in test [3] (setting [9]) was 5.52 in each case.
Consider `NC(=O)CC(N)C(=O)OB(c1ccccc1)c1ccccc1` (stereo not drawn) [Example 270, diphenyl(asparaginate-O,N)borane], for which the “TGase activity remaining (% of DMSO control = 100)” value in test [1] (setting [4]) is 111; in test [1] (TGase inhibitory activity value, Table 1, listed as 855) it was 111. Moreover, the x-Fold was 0.54 in test [2] (polyglutamine aggregation inhibitory activity, Table 1, listed as 855) and 0.54 in test [2] (setting [5]). Moreover, the pIC50 in test [3] (setting [6]) and in test [3] (setting [9]) was 6.15 throughout.
